Literature values, collected in patent publication US11864558B2, “Herbicidal compositions containing N-phosphonomethyl glycine and an auxin herbicide” (Monsanto Technology LLC, priority 2004, dated 2024).

Details: acid form; 25° C.

**Q.** Which solubility in water does the source give for O=C(O)CNCP(=O)(O)O [glyphosate, N-phosphonomethylglycine] here?
**A.** The solubility in water was 1.16 % by weight.
